In ChEMBL document CHEMBL1201862, “PubChem BioAssay data set” (2004):
Activity calls are given as the source filed them.

Legend:
[1] = biological target: T1, Sentrin-specific protease 8 (Homo sapiens, UniProt Q96LD8); format: functional
T1 sequence (Q96LD8 whole entry): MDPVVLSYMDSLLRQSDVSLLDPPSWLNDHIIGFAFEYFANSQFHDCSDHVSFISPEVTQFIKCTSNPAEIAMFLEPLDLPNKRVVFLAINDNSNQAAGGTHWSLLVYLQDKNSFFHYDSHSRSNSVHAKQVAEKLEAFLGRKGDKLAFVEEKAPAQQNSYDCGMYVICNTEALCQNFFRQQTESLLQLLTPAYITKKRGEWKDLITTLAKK

[2] = biological target: T1, Sentrin-specific protease 8; format: functional; remark: listed apart in the source
Caspase-3 = biological target: T2, Caspase-3 (Homo sapiens, UniProt P42574); experiment: Dose-response confirmation of uHTS inhibitor hits of Sentrin-Specific Protease 8 in a Caspase-3 Fluorescence assay.; format: functional
T2 sequence (P42574 whole entry): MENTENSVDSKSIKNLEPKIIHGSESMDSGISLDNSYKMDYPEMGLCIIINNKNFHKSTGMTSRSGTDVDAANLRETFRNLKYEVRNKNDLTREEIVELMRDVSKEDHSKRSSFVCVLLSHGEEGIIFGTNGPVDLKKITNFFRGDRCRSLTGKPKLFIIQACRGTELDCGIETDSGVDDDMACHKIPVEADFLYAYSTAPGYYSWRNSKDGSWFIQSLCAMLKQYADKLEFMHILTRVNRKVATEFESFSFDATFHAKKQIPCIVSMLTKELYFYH

[3] = biological target: T3, Methionyl-tRNA synthetase, putative (Trypanosoma brucei brucei, UniProt Q38C91); format: functional, Trypanosoma brucei brucei strain 927/4 GUTat10.1
T3 sequence (Q38C91 whole entry): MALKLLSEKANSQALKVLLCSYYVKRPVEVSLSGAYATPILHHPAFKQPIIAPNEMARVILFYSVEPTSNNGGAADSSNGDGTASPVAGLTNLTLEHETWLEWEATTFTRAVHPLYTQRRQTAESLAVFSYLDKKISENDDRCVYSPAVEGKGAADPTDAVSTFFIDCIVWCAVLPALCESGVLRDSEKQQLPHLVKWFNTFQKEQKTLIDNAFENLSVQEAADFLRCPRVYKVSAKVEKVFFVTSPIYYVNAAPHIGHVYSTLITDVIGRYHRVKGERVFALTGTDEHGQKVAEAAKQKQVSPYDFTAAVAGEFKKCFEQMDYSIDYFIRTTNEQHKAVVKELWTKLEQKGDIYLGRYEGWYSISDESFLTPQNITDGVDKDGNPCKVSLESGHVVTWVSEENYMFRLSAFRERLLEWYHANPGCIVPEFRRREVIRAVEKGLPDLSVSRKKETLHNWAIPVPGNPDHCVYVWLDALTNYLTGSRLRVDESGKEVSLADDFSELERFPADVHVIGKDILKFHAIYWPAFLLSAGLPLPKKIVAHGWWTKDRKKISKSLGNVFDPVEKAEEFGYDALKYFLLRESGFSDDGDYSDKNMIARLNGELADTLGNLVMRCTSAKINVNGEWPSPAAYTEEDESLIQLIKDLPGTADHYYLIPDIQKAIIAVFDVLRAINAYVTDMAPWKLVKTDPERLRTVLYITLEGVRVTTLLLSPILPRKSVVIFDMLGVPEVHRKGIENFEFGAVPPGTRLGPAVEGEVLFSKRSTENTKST

[4] = viability of uninfected HEp-2 cells – cell-based, HTS, cytotoxicity control for RSV inhibitor project, dose response (AID 2410); format: functional; settings: human respiratory syncytial virus
[5] = biological target: T3, Methionyl-tRNA synthetase, putative; format: functional, Trypanosoma brucei brucei strain 927/4 GUTat10.1; remark: listed apart in the source
[6] = Counterscreen for inhibitors of Trypanosoma brucei methionyl tRNA synthetase (MetRS): Luminescence-based cell-based high throughput dose response assay to identify compounds that are cytotoxic to Jurkat human T lymphocyte cells.; format: functional
[7] = Counterscreen for activators of the function of SWI/SNF related, matrix associated, actin dependent regulator of chromatin, subfamily a, member 2 (SMARCA2, BRM): Luminescence-based cell-based high throughput dose response assay to identify non-selective compounds using the VP16 reporter assay.; format: functional
[8] = biological target: SWI/SNF-related matrix-associated actin-dependent regulator of chromatin subfamily A member 2 (Homo sapiens, UniProt P51531); experiment: Luminescence-based cell-based high throughput dose response assay to identify activators of the function of SWI/SNF related, matrix associated, actin dependent regulator of chromatin, subfamily a, member 2 (SMARCA2, BRM).; format: functional
[9] = biological target: T4, Small ubiquitin-related modifier 1 (Homo sapiens, UniProt P63165); experiment: SUMO1 protein-protein binding blockers, potency – biochemical, FRET, dose response (AID 624383); format: functional; settings: read-out: IC50_Mean
[10] = biological target: T4, Small ubiquitin-related modifier 1; experiment: SUMO1 protein interaction blockers, potency – biochemical, fluorescence polarization, uHTS hits, dose response (AID 624382); format: functional; settings: read-out: IC50_Mean
[11] = biological target: T5, Sentrin-specific protease 1 (Homo sapiens, UniProt Q9P0U3); experiment: SENP1 catalytic domain blockers, concentration series – biochemical, kinetic FRET, dose response (AID 651697); format: functional; settings: read-out: IC50_Mean
T5 sequence (Q9P0U3 whole entry): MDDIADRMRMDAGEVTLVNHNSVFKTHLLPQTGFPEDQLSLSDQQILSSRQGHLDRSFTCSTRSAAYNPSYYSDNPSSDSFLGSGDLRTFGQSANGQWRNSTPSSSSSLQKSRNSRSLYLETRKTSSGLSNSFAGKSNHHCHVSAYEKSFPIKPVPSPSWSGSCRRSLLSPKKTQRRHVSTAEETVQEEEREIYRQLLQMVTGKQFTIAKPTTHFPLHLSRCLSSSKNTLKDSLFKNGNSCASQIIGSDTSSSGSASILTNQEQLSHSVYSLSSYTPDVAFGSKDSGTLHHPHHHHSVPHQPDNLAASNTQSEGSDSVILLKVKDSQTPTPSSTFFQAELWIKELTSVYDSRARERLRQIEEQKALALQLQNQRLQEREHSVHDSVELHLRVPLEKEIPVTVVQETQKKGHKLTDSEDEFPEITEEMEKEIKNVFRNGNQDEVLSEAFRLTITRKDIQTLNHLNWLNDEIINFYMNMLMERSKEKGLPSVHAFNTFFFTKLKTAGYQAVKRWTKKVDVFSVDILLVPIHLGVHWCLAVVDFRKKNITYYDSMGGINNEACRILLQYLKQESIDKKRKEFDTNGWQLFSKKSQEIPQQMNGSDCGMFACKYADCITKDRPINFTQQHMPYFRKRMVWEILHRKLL

[12] = biological target: T5, Sentrin-specific protease 1; experiment: Dose response confirmation of small molecule inhibitors of the catalytic domain of the SUMO protease, SENP1 in a FRET assay.; format: functional; settings: read-out: IC50_Mean
[13] = biological target: T6, Long-chain-fatty-acid--AMP ligase FadD28 (Mycobacterium tuberculosis, UniProt P9WQ59); experiment: Fluorescence polarization aasay to screen for inhibitors that compete for the binding of FadD28 to a bisubstrate Measured in Biochemical System Using Plate Reader - 2147-01_Inhibitor_Dose_CherryPick_Activity.; format: functional, Mycobacterium tuberculosis H37Rv
T6 sequence (P9WQ59 whole entry): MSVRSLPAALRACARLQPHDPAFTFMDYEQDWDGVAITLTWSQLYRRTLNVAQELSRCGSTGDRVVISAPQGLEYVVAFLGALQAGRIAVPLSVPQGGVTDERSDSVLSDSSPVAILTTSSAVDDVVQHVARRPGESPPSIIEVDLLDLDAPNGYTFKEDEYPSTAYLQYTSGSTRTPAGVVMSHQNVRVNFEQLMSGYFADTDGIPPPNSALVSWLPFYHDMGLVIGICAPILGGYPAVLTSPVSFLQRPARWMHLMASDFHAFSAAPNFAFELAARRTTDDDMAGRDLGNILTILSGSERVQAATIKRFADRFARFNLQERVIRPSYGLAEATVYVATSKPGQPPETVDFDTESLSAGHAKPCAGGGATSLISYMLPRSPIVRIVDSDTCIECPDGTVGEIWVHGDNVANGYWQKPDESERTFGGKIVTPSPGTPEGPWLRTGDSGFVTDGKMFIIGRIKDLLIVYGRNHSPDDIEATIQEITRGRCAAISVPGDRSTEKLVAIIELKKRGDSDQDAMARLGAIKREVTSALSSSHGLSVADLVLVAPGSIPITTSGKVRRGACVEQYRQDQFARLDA

SWI/SNF-related matrix-associated actin-dependent regulator of chromatin subfamily A member 2, sequence (P51531 whole entry): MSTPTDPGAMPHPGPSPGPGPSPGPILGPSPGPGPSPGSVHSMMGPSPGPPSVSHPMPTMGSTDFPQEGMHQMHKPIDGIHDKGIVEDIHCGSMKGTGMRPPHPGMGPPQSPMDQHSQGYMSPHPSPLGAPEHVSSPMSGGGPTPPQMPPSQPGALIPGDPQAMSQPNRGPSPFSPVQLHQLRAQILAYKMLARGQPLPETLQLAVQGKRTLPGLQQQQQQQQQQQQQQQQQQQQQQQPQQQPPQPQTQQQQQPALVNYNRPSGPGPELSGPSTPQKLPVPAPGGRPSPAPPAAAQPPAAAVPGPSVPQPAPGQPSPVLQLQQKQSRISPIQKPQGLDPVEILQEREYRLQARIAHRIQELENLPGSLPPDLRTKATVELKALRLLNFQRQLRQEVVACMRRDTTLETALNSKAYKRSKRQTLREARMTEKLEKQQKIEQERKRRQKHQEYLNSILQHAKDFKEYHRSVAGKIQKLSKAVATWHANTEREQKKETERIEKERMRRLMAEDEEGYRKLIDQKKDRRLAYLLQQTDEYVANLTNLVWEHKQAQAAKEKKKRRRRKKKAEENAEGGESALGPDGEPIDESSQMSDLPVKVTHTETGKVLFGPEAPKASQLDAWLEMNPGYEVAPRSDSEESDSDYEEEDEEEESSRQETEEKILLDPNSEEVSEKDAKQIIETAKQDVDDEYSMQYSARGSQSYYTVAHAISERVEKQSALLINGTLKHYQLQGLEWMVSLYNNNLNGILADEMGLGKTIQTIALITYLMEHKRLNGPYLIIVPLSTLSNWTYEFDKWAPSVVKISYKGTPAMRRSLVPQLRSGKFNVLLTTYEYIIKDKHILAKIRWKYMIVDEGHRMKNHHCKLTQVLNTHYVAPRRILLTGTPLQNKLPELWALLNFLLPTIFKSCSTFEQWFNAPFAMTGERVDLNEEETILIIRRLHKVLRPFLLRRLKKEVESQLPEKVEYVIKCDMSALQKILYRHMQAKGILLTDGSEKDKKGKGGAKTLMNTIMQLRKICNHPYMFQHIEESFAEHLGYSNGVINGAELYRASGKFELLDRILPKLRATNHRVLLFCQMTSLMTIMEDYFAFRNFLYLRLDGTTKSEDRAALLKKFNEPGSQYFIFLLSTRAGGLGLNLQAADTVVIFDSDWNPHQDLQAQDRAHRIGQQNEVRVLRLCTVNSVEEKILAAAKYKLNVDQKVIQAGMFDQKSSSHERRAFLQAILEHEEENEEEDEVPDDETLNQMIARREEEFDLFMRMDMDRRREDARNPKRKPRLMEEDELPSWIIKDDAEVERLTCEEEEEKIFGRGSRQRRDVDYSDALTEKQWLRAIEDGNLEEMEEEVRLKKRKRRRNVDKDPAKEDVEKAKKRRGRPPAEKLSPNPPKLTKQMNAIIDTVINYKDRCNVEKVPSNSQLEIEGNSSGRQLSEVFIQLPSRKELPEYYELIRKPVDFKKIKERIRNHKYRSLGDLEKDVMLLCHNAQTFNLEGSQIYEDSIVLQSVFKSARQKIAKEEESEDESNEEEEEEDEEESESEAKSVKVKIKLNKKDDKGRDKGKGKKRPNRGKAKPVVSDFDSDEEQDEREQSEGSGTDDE
T4 sequence (P63165 whole entry): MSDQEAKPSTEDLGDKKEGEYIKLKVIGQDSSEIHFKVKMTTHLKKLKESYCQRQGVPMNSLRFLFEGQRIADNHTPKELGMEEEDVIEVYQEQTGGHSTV

## O=C(NC1CCCCC1)C(c1ccnc2ccccc12)N1CCc2ccccc2C1 (stereo unspecified)
[1]
  IC50: 2.31 µM (active)
[2]
  IC50: 17.5 µM (active)
Caspase-3
  IC50: 9.26 µM (active)

## O=C(NCc1nc2ccccc2[nH]1)C1=C[C@H](c2ccc3c(c2)OCO3)C[C@H](OCc2ccc(CO)cc2)O1
[3]
  IC50: 2.79 µM (active)
[4]
  CC50: > 50 µM (active)
[5]
  IC50: 8.12 µM (active)
[6]
  IC50: 83.3 µM (inactive)

## O=C(c1n[nH]cc1-c1cccc(Br)c1)C1CO1 (stereo unspecified)
[7]
  EC50: > 91.2 µM (inactive)
[8]
  EC50: > 91.2 µM (inactive)

## COc1cccc(-c2cnc3c(NC=O)cc(-c4ccc(N5CCN(C)CC5)cc4)cn23)c1
[7]
  EC50: > 91.2 µM (inactive)
[8]
  EC50: > 10.1 µM (inactive)

## CCn1c(SCC(=O)NC(=O)NCc2ccco2)nc2sc(C)c(C)c2c1=O
[9]
  IC50: 21.9 µM (inactive)
[10]
  IC50: > 66.6 µM (inactive)

## COc1cc(/C=C2\CCCc3c2nc2ccccc2c3C(=O)O)cc(Br)c1O
[11]
  IC50: 3.84 µM (active)
[12]
  IC50: 2.85 µM (active)
[13]
  AC50: 63.8 µM (active)
